From US9226916B2, “Pyrrolidine derivatives” (HOFFMANN-LA ROCHE INC., priority 2009, dated 2016)

Each molecule was assayed against T1, recombinant human NK3 receptor (Homo sapiens, UniProt P29371) (assay: [3H]SR142801 competition binding assay). Conditions: not given.
T1 construct: expressed in transfected cells; host or cells: HEK293 cells, transient expression; membranes
T1 sequence (P29371 1-465): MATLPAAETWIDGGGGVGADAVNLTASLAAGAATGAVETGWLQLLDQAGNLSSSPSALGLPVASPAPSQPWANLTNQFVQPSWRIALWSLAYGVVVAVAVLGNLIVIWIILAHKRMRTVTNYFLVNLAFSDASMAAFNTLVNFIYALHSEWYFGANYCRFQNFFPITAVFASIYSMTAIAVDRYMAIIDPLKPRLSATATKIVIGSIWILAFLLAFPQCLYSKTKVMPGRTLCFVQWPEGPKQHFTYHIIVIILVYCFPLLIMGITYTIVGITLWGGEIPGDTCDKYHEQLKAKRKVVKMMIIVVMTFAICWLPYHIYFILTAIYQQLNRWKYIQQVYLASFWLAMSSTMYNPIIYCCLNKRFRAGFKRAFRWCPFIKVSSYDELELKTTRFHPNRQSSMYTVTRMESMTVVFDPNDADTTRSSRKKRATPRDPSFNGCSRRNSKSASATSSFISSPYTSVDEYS

Q: Which Ki does the source give for CN(C(=O)Oc1ccc(F)cc1)[C@H]1CN(C(=O)C2CCN(c3ccc(C#N)cn3)CC2)C[C@@H]1c1ccc(F)cc1 [Example 132, [(3R,4S)-1-(5′-Cyano-3,4,5,6-tetrahydro-2H-[1,2′]bipyridinyl-4-carbonyl)-4-(4-fluoro-phenyl)-pyrrolidin-3-yl]-methyl-carbamic acid 4-fluoro-phenyl ester] here?
A: 55.6 nM

Q: How did the Ki turn out when CN(C(=O)Oc1ccc(F)cc1)[C@@H]1CN(C(=O)C2CCN(C(=O)OC(C)(C)C)CC2)C[C@H]1c1ccc(Cl)cc1 [Example 133, 4-{(3R,4S)-3-(4-Chloro-phenyl)-4-[(4-fluoro-phenoxycarbonyl)-methyl-amino]-pyrrolidine-1-carbonyl}-piperidine-1-carboxylic acid tert-butyl ester] was run?
A: 3 nM

Q: Which Ki does the source give for Cc1nnc(N2CCC(C(=O)N3C[C@@H](N(C)C(=O)Oc4ccc(F)cc4)[C@H](c4ccc(Cl)cc4)C3)CC2)o1 [Example 134, {(3S,4R)-4-(4-Chloro-phenyl)-1-[1-(5-methyl-[1,3,4]oxadiazol-2-yl)-piperidine-4-carbonyl]-pyrrolidin-3-yl}-methyl-carbamic acid 4-fluoro-phenyl ester] here?
A: 3.6 nM

Q: How did the Ki turn out when CN(C(=O)Oc1ccc(F)cc1)[C@@H]1CN(C(=O)C2CCNCC2)C[C@H]1c1ccc(Cl)cc1 [Example 135, [(3S,4R)-4-(4-Chloro-phenyl)-1-(piperidine-4-carbonyl)-pyrrolidin-3-yl]-methyl-carbamic acid 4-fluoro-phenyl ester] was run?
A: 40.3 nM

Q: How did the Ki turn out when CCCOC(=O)N(C)[C@@H]1CN(C(=O)C2CCN(c3ccc(C#N)cn3)CC2)C[C@H]1c1ccc(Cl)cc1 [Example 138, [(3S,4R)-4-(4-Chloro-phenyl)-1-(5′-cyano-3,4,5,6-tetrahydro-2H-[1,2′]bipyridinyl-4-carbonyl)-pyrrolidin-3-yl]-methyl-carbamic acid propyl ester] was run?
A: 37.1 nM

Q: How did the Ki turn out when CC(C)COC(=O)N(C)[C@@H]1CN(C(=O)C2CCN(c3ccc(C#N)cn3)CC2)C[C@H]1c1ccc(Cl)cc1 [Example 139, [(3S,4R)-4-(4-Chloro-phenyl)-1-(5′-cyano-3,4,5,6-tetrahydro-2H-[1,2′]bipyridinyl-4-carbonyl)-pyrrolidin-3-yl]-methyl-carbamic acid isobutyl ester] was run?
A: 3.9 nM

Q: CN(C(=O)Oc1ccc(F)cc1)[C@@H]1CN(C(=O)C2CCN(c3ccc(C#N)nn3)CC2)C[C@H]1c1ccc(Cl)cc1 [Example 140, {(3S,4R)-4-(4-Chloro-phenyl)-1-[1-(6-cyano-pyridazin-3-yl)-piperidine-4-carbonyl]-pyrrolidin-3-yl}-methyl-carbamic acid 4-fluoro-phenyl ester] was tested. Which Ki did it give?
A: 0.9 nM

Q: For CC(C)COC(=O)N(C)[C@@H]1CN(C(=O)C2CCN(C(=O)C3(C)CC3)CC2)C[C@H]1c1ccc(Cl)cc1 [Example 141, {(3S,4R)-4-(4-Chloro-phenyl)-1-[1-(1-methyl-cyclopropanecarbonyl)-piperidine-4-carbonyl]-pyrrolidin-3-yl}-methyl-carbamic acid isobutyl ester], which Ki is on record?
A: 13.5 nM

Q: With CN(C(=O)Oc1ccc(F)cc1)[C@@H]1CN(C(=O)C2CCOC(C)(C)C2)C[C@H]1c1ccc(Cl)cc1 (stereo partly drawn) [Example 146, [(3S,4R)-4-(4-Chloro-phenyl)-1-(2,2-dimethyl-tetrahydro-pyran-4-carbonyl)-pyrrolidin-3-yl]-methyl-carbamic acid 4-fluoro-phenyl ester] as the molecule, how does the Ki read?
A: 6.8 nM

Q: With CN(C(=O)Oc1ccc(F)cc1)[C@@H]1CN(C(=O)C2CCCOC2)C[C@H]1c1ccc(Cl)cc1 (stereo partly drawn) [Example 147, [(3S,4R)-4-(4-Chloro-phenyl)-1-(tetrahydro-pyran-3-carbonyl)-pyrrolidin-3-yl]-methyl-carbamic acid 4-fluoro-phenyl ester] as the molecule, how does the Ki read?
A: 73.7 nM

Q: Which Ki does the source give for COC1CC(C(=O)N2C[C@@H](N(C)C(=O)Oc3ccc(F)cc3)[C@H](c3ccc(Cl)cc3)C2)C1 (stereo partly drawn) [Example 149, [(3S,4R)-4-(4-Chloro-phenyl)-1-(3-methoxy-cyclobutanecarbonyl)-pyrrolidin-3-yl]-methyl-carbamic acid 4-fluoro-phenyl ester] here?
A: 90.8 nM

Q: Which Ki does the source give for CN(C(=O)Oc1ccc(F)cc1)[C@@H]1CN(C(=O)C2CCN(C3CC3)CC2)C[C@H]1c1ccc(Cl)cc1 [Example 150, [(3S,4R)-4-(4-Chloro-phenyl)-1-(1-cyclopropyl-piperidine-4-carbonyl)-pyrrolidin-3-yl]-methyl-carbamic acid 4-fluoro-phenyl ester] here?
A: 15.6 nM

Q: Which Ki does the source give for CN(C(=O)Oc1ccc(F)cc1)[C@@H]1CN(C(=O)C2CCN(C(=O)OC(C)(C)C)C2)C[C@H]1c1ccc(Cl)cc1 (stereo partly drawn) [Example 151, 3-{(3R,4S)-3-(4-Chloro-phenyl)-4-[(4-fluoro-phenoxycarbonyl)-methyl-amino]-pyrrolidine-1-carbonyl}-pyrrolidine-1-carboxylic acid tert-butyl ester] here?
A: 18.2 nM

Q: Which Ki does the source give for CCC(C)OC(=O)N(C)[C@@H]1CN(C(=O)C2CCN(c3ccc(C#N)cn3)CC2)C[C@H]1c1ccc(Cl)cc1 (stereo partly drawn) [Example 157, [(3S,4R)-4-(4-Chloro-phenyl)-1-(5′-cyano-3,4,5,6-tetrahydro-2H-[1,2′]bipyridinyl-4-carbonyl)-pyrrolidin-3-yl]-methyl-carbamic acid sec-butyl ester] here?
A: 27.1 nM

Q: With Cc1ccc(N2CCC(C(=O)N3C[C@@H](N(C)C(=O)O[C@H]4CC[C@H](C(F)(F)F)CC4)[C@H](c4ccc(Cl)c(Cl)c4)C3)CC2)nn1 [Example 160, {(3S,4R)-4-(3,4-Dichloro-phenyl)-1-[1-(6-methyl-pyridazin-3-yl)-piperidine-4-carbonyl]-pyrrolidin-3-yl}-methyl-carbamic acid 4-trifluoromethyl-cyclohexyl ester] as the molecule, how does the Ki read?
A: 0.5 nM

Q: Which Ki does the source give for CN(C(=O)O[C@H]1CC[C@H](C(F)(F)F)CC1)[C@@H]1CN(C(=O)C2CCOCC2)C[C@H]1c1ccc(Cl)c(Cl)c1 [Example 161, [(3S,4R)-4-(3,4-Dichloro-phenyl)-1-(tetrahydro-pyran-4-carbonyl)-pyrrolidin-3-yl]-methyl-carbamic acid 4-trifluoromethyl-cyclohexyl ester] here?
A: 7.4 nM

Same assay, conditions: hNK-3 receptor affinity; membranes from HEK293 cells transiently expressing recombinant human NK3 receptor; [3H]SR142801; Cheng-Prussoff; read-out: Data Ki

Q: How did the Ki turn out when CN(C(=O)OC1CCCCC1)[C@@H]1CN(C(=O)C2CCN(c3ccc(C#N)cn3)CC2)C[C@H]1c1ccc(Cl)cc1 [Example 143, [(3S,4R)-4-(4-Chloro-phenyl)-1-(5′-cyano-3,4,5,6-tetrahydro-2H-[1,2′]bipyridinyl-4-carbonyl)-pyrrolidin-3-yl]-methyl-carbamic acid cyclohexyl ester] was run?
A: 3.2 nM

Q: Which Ki does the source give for CN(C(=O)OCCC(F)(F)F)[C@@H]1CN(C(=O)C2CCN(c3ccc(C#N)cn3)CC2)C[C@H]1c1ccc(Cl)cc1 [Example 144, [(3S,4R)-4-(4-Chloro-phenyl)-1-(5′-cyano-3,4,5,6-tetrahydro-2H-[1,2′]bipyridinyl-4-carbonyl)-pyrrolidin-3-yl]-methyl-carbamic acid 3,3,3-trifluoro-propyl ester] here?
A: 21.1 nM

Q: With CN(C(=O)OCCC(F)(F)F)[C@H]1CN(C(=O)C2CCN(c3ccc(C#N)cn3)CC2)C[C@@H]1c1ccc(Cl)cc1 [Example 145, [(3R,4S)-4-(4-Chloro-phenyl)-1-(5′-cyano-3,4,5,6-tetrahydro-2H-[1,2′]bipyridinyl-4-carbonyl)-pyrrolidin-3-yl]-methyl-carbamic acid 3,3,3-trifluoro-propyl ester] as the molecule, how does the Ki read?
A: 56.9 nM

Q: For CN(C(=O)OC1CCCCC1)[C@@H]1CN(C(=O)C2CCN(C(=O)C3(C)CC3)CC2)C[C@H]1c1ccc(Cl)cc1 [Example 152, {(3S,4R)-4-(4-Chloro-phenyl)-1-[1-(1-methyl-cyclopropanecarbonyl)-piperidine-4-carbonyl]-pyrrolidin-3-yl}-methyl-carbamic acid cyclohexyl ester], which Ki is on record?
A: 14.7 nM

Q: For CC(OC(=O)N(C)[C@@H]1CN(C(=O)C2CCN(c3ccc(C#N)cn3)CC2)C[C@H]1c1ccc(Cl)cc1)C1CC1 (stereo partly drawn) [Example 153, [(3S,4R)-4-(4-Chloro-phenyl)-1-(5′-cyano-3,4,5,6-tetrahydro-2H-[1,2′]bipyridinyl-4-carbonyl)-pyrrolidin-3-yl]-methyl-carbamic acid 1-cyclopropyl-ethyl ester], which Ki is on record?
A: 19.2 nM

Q: How did the Ki turn out when CN(C(=O)OC1CCOCC1)[C@@H]1CN(C(=O)C2CCN(c3ccc(C#N)cn3)CC2)C[C@H]1c1ccc(Cl)cc1 [Example 156, [(3S,4R)-4-(4-Chloro-phenyl)-1-(5′-cyano-3,4,5,6-tetrahydro-2H-[1,2′]bipyridinyl-4-carbonyl)-pyrrolidin-3-yl]-methyl-carbamic acid tetrahydro-pyran-4-yl ester] was run?
A: 18.3 nM

Q: How did the Ki turn out when CN(C(=O)OCC(F)(F)F)[C@@H]1CN(C(=O)C2CCN(c3ccc(C#N)cn3)CC2)C[C@H]1c1ccc(Cl)cc1 [Example 158, [(3S,4R)-4-(4-Chloro-phenyl)-1-(5′-cyano-3,4,5,6-tetrahydro-2H-[1,2′]bipyridinyl-4-carbonyl)-pyrrolidin-3-yl]-methyl-carbamic acid 2,2,2-trifluoro-ethyl ester] was run?
A: 12.5 nM

Q: CN(C(=O)O[C@H]1CC[C@H](C(F)(F)F)CC1)[C@@H]1CN(C(=O)C2CCN(c3ccc(C#N)cn3)CC2)C[C@H]1c1ccc(Cl)c(Cl)c1 [Example 159, [(3S,4R)-1-(5′-Cyano-3,4,5,6-tetrahydro-2H-[1,2′]bipyridinyl-4-carbonyl)-4-(3,4-dichloro-phenyl)-pyrrolidin-3-yl]-methyl-carbamic acid 4-trifluoromethyl-cyclohexyl ester] was tested. Which Ki did it give?
A: 0.4 nM
